Results published in article PMC7717986, “Echinacoside Suppresses Amyloidogenesis and Modulates F-actin Remodeling by Targeting the ER Stress Sensor PERK in a Mouse Model of Alzheimer’s Disease” (Frontiers in Cell and Developmental Biology, 2020).

Experiments:
mouse PERK (mPERK) = target: T1, mouse PERK (mPERK) (Mus musculus, UniProt Q9Z2B5); assay: microscale thermophoresis (MST) with labeled PERK protein; assay type: binding
T1 construct: gene Eif2ak3
T1 sequence (Q9Z2B5 29-1114): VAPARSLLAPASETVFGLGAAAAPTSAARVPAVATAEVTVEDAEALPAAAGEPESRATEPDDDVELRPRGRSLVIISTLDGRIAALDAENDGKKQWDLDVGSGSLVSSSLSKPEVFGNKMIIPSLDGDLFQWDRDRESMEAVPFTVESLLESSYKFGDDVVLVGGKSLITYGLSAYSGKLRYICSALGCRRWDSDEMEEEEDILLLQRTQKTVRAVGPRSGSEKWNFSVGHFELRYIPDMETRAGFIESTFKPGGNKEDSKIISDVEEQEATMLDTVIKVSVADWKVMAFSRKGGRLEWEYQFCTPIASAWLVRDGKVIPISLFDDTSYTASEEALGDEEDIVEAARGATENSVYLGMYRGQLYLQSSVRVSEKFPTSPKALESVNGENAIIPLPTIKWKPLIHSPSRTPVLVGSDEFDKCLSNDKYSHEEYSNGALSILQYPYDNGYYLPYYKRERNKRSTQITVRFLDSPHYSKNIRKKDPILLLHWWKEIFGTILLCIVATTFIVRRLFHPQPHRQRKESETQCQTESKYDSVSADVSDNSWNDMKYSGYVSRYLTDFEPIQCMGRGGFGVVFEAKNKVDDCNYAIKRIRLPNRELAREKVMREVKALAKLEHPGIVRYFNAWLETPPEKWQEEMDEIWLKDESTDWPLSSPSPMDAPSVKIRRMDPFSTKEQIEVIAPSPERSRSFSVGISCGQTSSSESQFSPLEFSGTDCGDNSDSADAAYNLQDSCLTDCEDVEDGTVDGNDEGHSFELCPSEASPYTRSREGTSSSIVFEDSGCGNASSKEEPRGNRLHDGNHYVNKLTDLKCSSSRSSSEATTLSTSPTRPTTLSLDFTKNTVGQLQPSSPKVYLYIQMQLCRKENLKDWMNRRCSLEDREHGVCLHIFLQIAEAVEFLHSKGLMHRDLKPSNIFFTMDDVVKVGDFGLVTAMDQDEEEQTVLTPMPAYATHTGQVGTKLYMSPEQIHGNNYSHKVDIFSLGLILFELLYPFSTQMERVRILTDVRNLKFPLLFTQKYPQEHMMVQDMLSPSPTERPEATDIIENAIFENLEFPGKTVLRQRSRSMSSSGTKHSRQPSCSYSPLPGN

human PERK (hPERK) = target: T2, human PERK (hPERK) (Homo sapiens, UniProt Q9NZJ5); assay: as above; assay type: binding
T2 construct: gene EIF2AK3
T2 sequence (Q9NZJ5 30-1116): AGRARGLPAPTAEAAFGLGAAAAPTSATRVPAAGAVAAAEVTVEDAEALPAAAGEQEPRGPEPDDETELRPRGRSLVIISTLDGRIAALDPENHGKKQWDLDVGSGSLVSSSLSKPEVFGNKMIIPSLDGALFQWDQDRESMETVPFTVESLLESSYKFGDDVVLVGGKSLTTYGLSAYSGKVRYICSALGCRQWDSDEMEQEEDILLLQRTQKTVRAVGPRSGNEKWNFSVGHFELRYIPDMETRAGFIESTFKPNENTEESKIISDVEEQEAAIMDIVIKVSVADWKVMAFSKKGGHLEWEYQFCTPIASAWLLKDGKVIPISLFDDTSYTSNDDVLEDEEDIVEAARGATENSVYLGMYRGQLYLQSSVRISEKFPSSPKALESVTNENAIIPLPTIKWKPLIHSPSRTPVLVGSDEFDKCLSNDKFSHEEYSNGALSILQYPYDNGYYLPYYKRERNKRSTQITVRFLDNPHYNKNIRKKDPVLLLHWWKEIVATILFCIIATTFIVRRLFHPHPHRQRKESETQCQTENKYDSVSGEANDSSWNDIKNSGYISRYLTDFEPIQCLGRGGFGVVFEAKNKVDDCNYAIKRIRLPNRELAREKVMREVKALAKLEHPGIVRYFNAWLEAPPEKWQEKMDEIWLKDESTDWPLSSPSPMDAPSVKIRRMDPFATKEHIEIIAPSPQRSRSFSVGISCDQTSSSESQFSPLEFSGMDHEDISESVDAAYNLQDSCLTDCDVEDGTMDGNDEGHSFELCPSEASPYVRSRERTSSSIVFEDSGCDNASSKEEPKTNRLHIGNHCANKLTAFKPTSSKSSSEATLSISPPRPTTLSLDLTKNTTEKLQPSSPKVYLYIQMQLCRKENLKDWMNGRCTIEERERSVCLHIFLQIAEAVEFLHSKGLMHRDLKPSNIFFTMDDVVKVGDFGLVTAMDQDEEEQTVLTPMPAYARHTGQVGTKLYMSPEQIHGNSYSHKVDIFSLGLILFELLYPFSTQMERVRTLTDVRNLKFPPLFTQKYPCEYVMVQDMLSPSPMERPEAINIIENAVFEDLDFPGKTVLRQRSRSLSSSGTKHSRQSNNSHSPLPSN

Kd (mouse PERK (mPERK)): 851 ± 81 nM
Kd (human PERK (hPERK)): 635 ± 74 nM
SMILES: C[C@@H]1O[C@@H](O[C@@H]2[C@@H](O)[C@H](OCCc3ccc(O)c(O)c3)O[C@H](CO[C@@H]3O[C@H](CO)[C@@H](O)[C@H](O)[C@H]3O)[C@H]2OC(=O)/C=C/c2ccc(O)c(O)c2)[C@H](O)[C@H](O)[C@H]1O [ECH, Echinacoside]
